# Experimental data: ChEMBL document CHEMBL5143732 (J Med Chem, 2022)
# Legend:
# Format in all cases: functional
# Cryptococcus neoformans = test: Antifungal activity against Cryptococcus neoformans ATCC 32609 assessed as inhibition of fungal growth measured after 48 hrs by CLSI based agar dilution method
# Candida albicans = test: Antifungal activity against Candida albicans assessed as inhibition of fungal growth measured after 48 hrs by CLSI based agar dilution method
# Pichia kudriavzevii [1] = test: Antifungal activity against Candida krusei assessed as inhibition of fungal growth measured after 48 hrs by CLSI based agar dilution method
# Candida parapsilosis = test: Antifungal activity against Candida parapsilosis assessed as inhibition of fungal growth measured after 48 hrs by CLSI based agar dilution method; details: Lodderomyces parapsilosis
# Pichia kudriavzevii [2] = test: Antifungal activity against Candida krusei ATCC 6258 assessed as inhibition of fungal growth measured after 48 hrs by CLSI based agar dilution method
# Candida tropicalis = test: Antifungal activity against Candida tropicalis assessed as inhibition of fungal growth measured after 48 hrs by CLSI based agar dilution method
Structure (SMILES),MIC (Cryptococcus neoformans) [µg/mL],MIC (Candida albicans) [µg/mL],MIC (Pichia kudriavzevii [1]) [µg/mL],MIC (Candida parapsilosis) [µg/mL],MIC (Pichia kudriavzevii [2]) [µg/mL],MIC (Candida tropicalis) [µg/mL]
CNCC(=O)N[C@@H]1[C@H](O)[C@H](O[C@H]2/C=C/C=C/C=C/C=C/C=C/C=C/C=C/[C@H](C)[C@@H](O)[C@@H](C)[C@H](C)OC(=O)C[C@H](O)C[C@H](O)CC[C@@H](O)[C@H](O)C[C@H](O)C[C@]3(O)C[C@H](O)[C@@H](C(=O)N4CCN(CCOC)CC4)[C@H](C2)O3)O[C@H](C)[C@H]1O,0.25,0.5,2,4,32,0.5
CNCC(=O)N[C@@H]1[C@H](O)[C@H](O[C@H]2/C=C/C=C/C=C/C=C/C=C/C=C/C=C/[C@H](C)[C@@H](O)[C@@H](C)[C@H](C)OC(=O)C[C@H](O)C[C@H](O)CC[C@@H](O)[C@H](O)C[C@H](O)C[C@]3(O)C[C@H](O)[C@@H](C(=O)N4CCN(CCN(C)C)CC4)[C@H](C2)O3)O[C@H](C)[C@H]1O,1,1,2,1,4,1
C[C@@H]1[C@H](O)[C@@H](C)/C=C/C=C/C=C/C=C/C=C/C=C/C=C/[C@H](O[C@@H]2O[C@H](C)[C@@H](O)[C@H](NC(=O)CCN)[C@@H]2O)C[C@@H]2O[C@](O)(C[C@@H](O)C[C@@H](O)[C@H](O)CC[C@@H](O)C[C@@H](O)CC(=O)O[C@H]1C)C[C@H](O)[C@H]2C(=O)NCCO,2,2,2,8,4,8
CNCC(=O)N[C@@H]1[C@H](O)[C@H](O[C@H]2/C=C/C=C/C=C/C=C/C=C/C=C/C=C/[C@H](C)[C@@H](O)[C@@H](C)[C@H](C)OC(=O)C[C@H](O)C[C@H](O)CC[C@@H](O)[C@H](O)C[C@H](O)C[C@]3(O)C[C@H](O)[C@@H](C(=O)NNC(C)=O)[C@H](C2)O3)O[C@H](C)[C@H]1O,0.125,0.125,0.5,2,4,4
C[C@@H]1[C@H](O)[C@@H](C)/C=C/C=C/C=C/C=C/C=C/C=C/C=C/[C@H](O[C@@H]2O[C@H](C)[C@@H](O)[C@H](NC(=O)CN)[C@@H]2O)C[C@@H]2O[C@](O)(C[C@@H](O)C[C@@H](O)[C@H](O)CC[C@@H](O)C[C@@H](O)CC(=O)O[C@H]1C)C[C@H](O)[C@H]2C(=O)NCCN(C)C,0.5,1,1,1,16,2
CNCCOCC(=O)N[C@@H]1[C@H](O)[C@H](O[C@H]2/C=C/C=C/C=C/C=C/C=C/C=C/C=C/[C@H](C)[C@@H](O)[C@@H](C)[C@H](C)OC(=O)C[C@H](O)C[C@H](O)CC[C@@H](O)[C@H](O)C[C@H](O)C[C@]3(O)C[C@H](O)[C@@H](C(=O)N4CCN(CCO)CC4)[C@H](C2)O3)O[C@H](C)[C@H]1O,1,1,2,2,16,1
C[C@@H]1[C@H](O)[C@@H](C)/C=C/C=C/C=C/C=C/C=C/C=C/C=C/[C@H](O[C@@H]2O[C@H](C)[C@@H](O)[C@H](N)[C@@H]2O)C[C@@H]2O[C@](O)(C[C@@H](O)C[C@@H](O)[C@H](O)CC[C@@H](O)C[C@@H](O)CC(=O)O[C@H]1C)C[C@H](O)[C@H]2C(=O)NNC(=O)c1ccccc1,0.5,0.5,1,4,2,4
C[C@@H]1[C@H](O)[C@@H](C)/C=C/C=C/C=C/C=C/C=C/C=C/C=C/[C@H](O[C@@H]2O[C@H](C)[C@@H](O)[C@H](NC(=O)CN)[C@@H]2O)C[C@@H]2O[C@](O)(C[C@@H](O)C[C@@H](O)[C@H](O)CC[C@@H](O)C[C@@H](O)CC(=O)O[C@H]1C)C[C@H](O)[C@H]2C(=O)NCCO,2,1,2,4,4,4
C[C@@H]1[C@H](O)[C@@H](C)/C=C/C=C/C=C/C=C/C=C/C=C/C=C/[C@H](O[C@@H]2O[C@H](C)[C@@H](O)[C@H](NC(=O)CCN)[C@@H]2O)C[C@@H]2O[C@](O)(C[C@@H](O)C[C@@H](O)[C@H](O)CC[C@@H](O)C[C@@H](O)CC(=O)O[C@H]1C)C[C@H](O)[C@H]2C(=O)NCCN(C)C,0.125,0.5,0.5,2,16,0.5
CNCC(=O)N[C@@H]1[C@H](O)[C@H](O[C@H]2/C=C/C=C/C=C/C=C/C=C/C=C/C=C/[C@H](C)[C@@H](O)[C@@H](C)[C@H](C)OC(=O)C[C@H](O)C[C@H](O)CC[C@@H](O)[C@H](O)C[C@H](O)C[C@]3(O)C[C@H](O)[C@@H](C(=O)NNC(=O)OC)[C@H](C2)O3)O[C@H](C)[C@H]1O,0.5,0.125,0.125,4,2,1
